# Results taken from patent US20050138675A1, “Method for determining cardiotoxicity” (Pfizer Inc., priority 2003, published 2005).
# Tested on: cardiac ventricular tissue
# Details: at least 2-fold relative to control
# Description: Male Sprague-Dawley rats weighing between 175-220 grams were used for all studies. Animals were purchased from Charles River Laboratories (Wilmington, Mass.) and allowed to acclimate for one week prior to use. All animals were given food and water ad libitum, and housed under a 12-hour light/12-hour dark cycle. The animals were housed in conventional plastic bottom cages (2 animals/cage) with corncob bedding. All dosing with test compounds was a single acute injection by the intraperitoneal route, in normal saline, with a 20×¾″ disposable needle attached to a 1 cc disposable syringe. These animals were euthanized by a 150 mg/kg intraperitoneal injection of Nembutal prior to collection of heart tissue.
# Dose range-finding studies were completed to determine a xenobiotic dose that would produce signs of cardiotoxicity such as elevated serum troponins, creatine kinase isoenzymes, or histo-pathological tissue changes, without causing overt general toxicity. Comprehensive literature reviews were also used to select doses. […] Six or twenty-four hours later, animals were euthanized with a lethal intraperitoneal dose of Nembutal solution. Biopsy punches were used to remove approximately […] of ventricular tissue for subsequent RNA isolation and gene expression analysis. Total RNA was isolated from the samples using a Qiagen RNAeasy protocol (Valencia, Calif.). In this procedure, RNA is captured on a solid phase column, then washed with a series of solutions to purify the sample. In the last step, RNA is eluted from the column with RNAse free water. RNA quality and quantity was then checked with an optical density reading at 260/280 wavelengths, and an aliquot of RNA was run on an RNA denaturing gel. High quality RNA should have an OD 260/280 ratio of 2, and the denaturing gel should show two distinct ribosomal RNA bands.
# Synthesis of double stranded cDNA from the total RNA isolated was the first step, which involves the incorporation of a T7-(dT)24 primer into the sequence, with subsequent second strand synthesis which yields a double stranded template for the in vitro transcription (IVT) reaction. The resulting cDNA was run in an IVT reaction using an Enzo BioArray High Yield RNA transcript labeling kit (Enzo Life Sciences, Inc. Farmingdale, N.Y.), during which a biotin label was incorporated into the complementary RNA (cRNA) sequence. This step also amplified the product by generating approximately 40 transcripts per cDNA substrate. After the IVT reaction, cRNA was fragmented by metallic fragmentation, and a small portion of the sample was run on a 1% agarose gel in order to visualize the fragmentation pattern. The range should be between 35 to 200 bases. Four samples from each group showing the highest purity and quality results were pooled for hybridization onto one Genechip to greatly reduce experimental costs. Genes of interest that are found through the use of GeneChip technology, will then be verified using real time PCR techniques on each individual sample.
# Next, the cRNA was hybridized to the RG U34A GeneChip oligonucleotide array (Affymetrix Inc, Santa Clara, Calif.). An aliquot of the fragmented cRNA was mixed with control components, injected into the array, and the filled array was allowed to incubate at 45° C. for 16 hours in an Affymetrix oven, which rotates the samples continuously during incubation. The next morning, the array was taken from the oven and the sample was removed and frozen at −80° C. for possible future use. That is, in the event of a defective chip, the hybridization solution can be re-used. The array chamber was then filled with a wash buffer, and placed in an automated fluid exchange system. The fluidics station controls the washing and staining of the probe array with the fluorescently labeled streptavidin stain solution and an antibody solution. After the staining process was complete the chips were scanned by an Agilent GeneArray laser scanner (Agilent, Palo Alto, Calif.).
# [1] = 6 hour after single i.p. dose (DIG 20, DOX 30, ISO 70, LPS 10 mg/kg)
# [2] = 24 hour after single i.p. dose (DIG 20, DOX 30, ISO 70, LPS 10 mg/kg)
substance,measurement,setting,value
lipopolysaccharide [LPS],"AA957003 intercellular calcium-binding protein expression, up or down",[1],up
same,"AI176456 metallothionein expression, up or down",[1],up
same,"J02722 heme oxygenase (hsp32) expression, up or down",[1],up
same,"X01118 gamma-rANP expression, up or down",[1],down
same,"X89225 L-like neutral amino acid transport protein expression, up or down",[1],up
same,"AA892801 EST expression, up or down",[2],up
same,"AA899106 cyclin D2 expression, up or down",[2],down
same,"AB005743 fatty acid transporter expression, up or down",[2],up
same,"AF016296 neuropilin expression, up or down",[2],down
same,"AI008852 EST expression, up or down",[2],up
same,"AI170776 GRB2 expression, up or down",[2],up
same,"AI638989 EST expression, up or down",[2],down
same,"D85183 SHPS-1 expression, up or down",[2],up
same,"M57276 leukocyte antigen MRC-OX44 expression, up or down",[2],up
same,"U14950 synapse-associated protein 97 expression, up or down",[2],up
same,"U68272 interferon gamma receptor expression, up or down",[2],up
same,"X52140 integrin alpha-1 expression, up or down",[2],down
same,"X71127 complement protein C1q beta chain expression, up or down",[2],up
